# Source: PubChem BioAssay (NCI)
#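 Grown in 96-well plates, cells were treated for 48 hours with each compound at five concentrations. Insufficient inhibition: endpoint recorded as highest concentration tested. TGI: total growth inhibition.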
# Columns and labels:
# Assay in all cases: DTP human tumour cell line panel, 48 h
# IGROV1 ovarian = test system: IGROV1 ovarian
# CCRF-CEM leukemia = test system: CCRF-CEM leukemia
# HCT-15 colon = test system: HCT-15 colon
# DMS 114 small cell lung = test system: DMS 114 small cell lung
# COLO 205 colon = test system: COLO 205 colon
# RPMI-8226 leukemia = test system: RPMI-8226 leukemia
# SNB-19 CNS = test system: SNB-19 CNS
# NCI-H460 lung = test system: NCI-H460 lung
# UACC-62 melanoma = test system: UACC-62 melanoma
# KM20L2 colon = test system: KM20L2 colon
# MALME-3M melanoma = test system: MALME-3M melanoma
# KM12 colon = test system: KM12 colon
# NCI-H23 lung = test system: NCI-H23 lung
# RXF-631 renal = test system: RXF-631 renal
# OVCAR-8 ovarian = test system: OVCAR-8 ovarian
# SNB-75 CNS = test system: SNB-75 CNS
# U251 CNS = test system: U251 CNS
# DLD-1 colon = test system: DLD-1 colon
# UACC-257 melanoma = test system: UACC-257 melanoma
# SF-295 CNS = test system: SF-295 CNS
# HCC-2998 colon = test system: HCC-2998 colon
# DMS 273 small cell lung = test system: DMS 273 small cell lung
# EKVX NSCLC = test system: EKVX NSCLC
# 786-0 renal = test system: 786-0 renal
# OVCAR-4 ovarian = test system: OVCAR-4 ovarian
# SK-MEL-5 melanoma = test system: SK-MEL-5 melanoma
# CAKI-1 renal = test system: CAKI-1 renal
# NCI-H522 lung = test system: NCI-H522 lung
# SNB-78 CNS = test system: SNB-78 CNS
# SF-539 CNS = test system: SF-539 CNS
# UO-31 renal = test system: UO-31 renal
# HT29 colon = test system: HT29 colon
# SK-MEL-2 melanoma = test system: SK-MEL-2 melanoma
# LOX IMVI melanoma = test system: LOX IMVI melanoma
# OVCAR-5 ovarian = test system: OVCAR-5 ovarian
# SK-MEL-28 melanoma = test system: SK-MEL-28 melanoma
# ACHN renal = test system: ACHN renal
# SF-268 CNS = test system: SF-268 CNS
# M14 melanoma = test system: M14 melanoma
# K-562 leukemia = test system: K-562 leukemia
# SK-OV-3 ovarian = test system: SK-OV-3 ovarian
# SN12C renal = test system: SN12C renal
# SW-620 colon = test system: SW-620 colon
# A549 NSCLC = test system: A549 NSCLC
# HL-60(TB) leukemia = test system: HL-60(TB) leukemia
# RXF 393 renal = test system: RXF 393 renal
# LXFL 529 NSCLC = test system: LXFL 529 NSCLC
# A498 renal = test system: A498 renal
# TK-10 renal = test system: TK-10 renal
# MOLT-4 leukemia = test system: MOLT-4 leukemia
# XF 498 CNS = test system: XF 498 CNS
# HOP-62 NSCLC = test system: HOP-62 NSCLC
# HOP-92 NSCLC = test system: HOP-92 NSCLC
# HCT-116 colon = test system: HCT-116 colon
# SR leukemia = test system: SR leukemia
# NCI-H226 lung = test system: NCI-H226 lung
# M19-MEL melanoma = test system: M19-MEL melanoma
# OVCAR-3 ovarian = test system: OVCAR-3 ovarian
smiles,measurement,setting,value
O=c1c(C(=Nc2ccccc2)c2ccccc2)c[nH]n1-c1ccccc1,TGI,IGROV1 ovarian,> 100 µM
same,TGI,CCRF-CEM leukemia,> 100 µM
same,TGI,HCT-15 colon,> 100 µM
same,TGI,DMS 114 small cell lung,> 100 µM
same,TGI,COLO 205 colon,> 100 µM
same,TGI,RPMI-8226 leukemia,> 100 µM
same,TGI,SNB-19 CNS,> 100 µM
same,TGI,NCI-H460 lung,> 100 µM
same,TGI,UACC-62 melanoma,> 100 µM
same,TGI,KM20L2 colon,> 100 µM
same,TGI,MALME-3M melanoma,> 100 µM
same,TGI,KM12 colon,> 100 µM
same,TGI,NCI-H23 lung,> 100 µM
same,TGI,RXF-631 renal,> 100 µM
same,TGI,OVCAR-8 ovarian,> 100 µM
same,TGI,SNB-75 CNS,> 100 µM
same,TGI,U251 CNS,> 100 µM
same,TGI,DLD-1 colon,> 100 µM
same,TGI,UACC-257 melanoma,> 100 µM
same,TGI,SF-295 CNS,> 100 µM
same,TGI,HCC-2998 colon,> 100 µM
same,TGI,DMS 273 small cell lung,> 100 µM
same,TGI,EKVX NSCLC,> 100 µM
same,TGI,786-0 renal,> 100 µM
same,TGI,OVCAR-4 ovarian,> 100 µM
same,TGI,SK-MEL-5 melanoma,> 100 µM
same,TGI,CAKI-1 renal,> 100 µM
same,TGI,NCI-H522 lung,> 100 µM
same,TGI,SNB-78 CNS,> 100 µM
same,TGI,SF-539 CNS,> 100 µM
same,TGI,UO-31 renal,> 100 µM
same,TGI,HT29 colon,> 100 µM
same,TGI,SK-MEL-2 melanoma,> 100 µM
same,TGI,LOX IMVI melanoma,> 100 µM
same,TGI,OVCAR-5 ovarian,> 100 µM
same,TGI,SK-MEL-28 melanoma,> 100 µM
same,TGI,ACHN renal,> 100 µM
same,TGI,SF-268 CNS,> 100 µM
same,TGI,M14 melanoma,> 100 µM
same,TGI,K-562 leukemia,> 100 µM
same,TGI,SK-OV-3 ovarian,> 100 µM
same,TGI,SN12C renal,> 100 µM
same,TGI,SW-620 colon,> 100 µM
same,TGI,A549 NSCLC,> 100 µM
same,TGI,HL-60(TB) leukemia,> 100 µM
same,TGI,RXF 393 renal,72.8 µM
same,TGI,LXFL 529 NSCLC,> 100 µM
same,TGI,A498 renal,> 100 µM
same,TGI,TK-10 renal,> 100 µM
same,TGI,MOLT-4 leukemia,> 100 µM
same,TGI,XF 498 CNS,> 100 µM
CN(C)CCCCC1CCN(CC(=O)N2c3ccccc3NC(=O)c3ccccc32)CC1,TGI,HOP-62 NSCLC,> 100 µM
same,TGI,CCRF-CEM leukemia,> 100 µM
same,TGI,HOP-92 NSCLC,> 100 µM
same,TGI,DMS 114 small cell lung,> 100 µM
same,TGI,COLO 205 colon,> 100 µM
same,TGI,RPMI-8226 leukemia,> 100 µM
same,TGI,SNB-19 CNS,> 100 µM
same,TGI,HCT-116 colon,> 100 µM
same,TGI,UACC-62 melanoma,> 100 µM
same,TGI,MALME-3M melanoma,> 100 µM
same,TGI,KM12 colon,> 100 µM
same,TGI,NCI-H23 lung,> 100 µM
same,TGI,RXF-631 renal,> 100 µM
same,TGI,OVCAR-8 ovarian,> 100 µM
same,TGI,SNB-75 CNS,> 100 µM
same,TGI,DLD-1 colon,> 100 µM
same,TGI,UACC-257 melanoma,> 100 µM
same,TGI,SF-295 CNS,> 100 µM
same,TGI,HCC-2998 colon,> 100 µM
same,TGI,DMS 273 small cell lung,> 100 µM
same,TGI,EKVX NSCLC,> 100 µM
same,TGI,786-0 renal,> 100 µM
same,TGI,OVCAR-4 ovarian,> 100 µM
same,TGI,SK-MEL-5 melanoma,> 100 µM
same,TGI,CAKI-1 renal,> 100 µM
same,TGI,NCI-H522 lung,> 100 µM
same,TGI,SR leukemia,> 100 µM
same,TGI,SNB-78 CNS,> 100 µM
same,TGI,SF-539 CNS,> 100 µM
same,TGI,UO-31 renal,> 100 µM
same,TGI,HT29 colon,> 100 µM
same,TGI,SK-MEL-2 melanoma,> 100 µM
same,TGI,NCI-H226 lung,> 100 µM
same,TGI,SK-MEL-28 melanoma,> 100 µM
same,TGI,SF-268 CNS,> 100 µM
same,TGI,M19-MEL melanoma,> 100 µM
same,TGI,M14 melanoma,72.9 µM
same,TGI,K-562 leukemia,> 100 µM
same,TGI,SK-OV-3 ovarian,> 100 µM
same,TGI,SN12C renal,> 100 µM
same,TGI,SW-620 colon,> 100 µM
same,TGI,A549 NSCLC,> 100 µM
same,TGI,OVCAR-3 ovarian,> 100 µM
same,TGI,HL-60(TB) leukemia,> 100 µM
same,TGI,LXFL 529 NSCLC,> 100 µM
same,TGI,A498 renal,> 100 µM
same,TGI,TK-10 renal,> 100 µM
same,TGI,MOLT-4 leukemia,> 100 µM
same,TGI,XF 498 CNS,> 100 µM
O=S(=O)(c1ccccc1)C1CN2OC1(S(=O)(=O)c1ccccc1)CC21CCCCC1 (centres undefined),TGI,HOP-62 NSCLC,> 100 µM
same,TGI,IGROV1 ovarian,> 100 µM
same,TGI,CCRF-CEM leukemia,> 100 µM
same,TGI,HCT-15 colon,> 100 µM
same,TGI,DMS 114 small cell lung,> 100 µM
same,TGI,COLO 205 colon,> 100 µM
same,TGI,RPMI-8226 leukemia,> 100 µM
same,TGI,SNB-19 CNS,> 100 µM
same,TGI,NCI-H460 lung,> 100 µM
same,TGI,HCT-116 colon,> 100 µM
same,TGI,UACC-62 melanoma,> 100 µM
same,TGI,KM20L2 colon,> 100 µM
same,TGI,MALME-3M melanoma,> 100 µM
same,TGI,KM12 colon,> 100 µM
same,TGI,NCI-H23 lung,> 100 µM
same,TGI,RXF-631 renal,> 100 µM
same,TGI,OVCAR-8 ovarian,> 100 µM
same,TGI,SNB-75 CNS,> 100 µM
same,TGI,U251 CNS,> 100 µM
same,TGI,DLD-1 colon,> 100 µM
same,TGI,UACC-257 melanoma,> 100 µM
same,TGI,SF-295 CNS,> 100 µM
same,TGI,HCC-2998 colon,> 100 µM
same,TGI,DMS 273 small cell lung,> 100 µM
same,TGI,EKVX NSCLC,> 100 µM
same,TGI,786-0 renal,> 100 µM
same,TGI,OVCAR-4 ovarian,> 100 µM
same,TGI,CAKI-1 renal,> 100 µM
same,TGI,NCI-H522 lung,> 100 µM
same,TGI,SR leukemia,> 100 µM
same,TGI,SF-539 CNS,> 100 µM
same,TGI,UO-31 renal,> 100 µM
same,TGI,HT29 colon,> 100 µM
same,TGI,SK-MEL-2 melanoma,> 100 µM
same,TGI,LOX IMVI melanoma,> 100 µM
same,TGI,NCI-H226 lung,> 100 µM
same,TGI,OVCAR-5 ovarian,> 100 µM
same,TGI,SK-MEL-28 melanoma,> 100 µM
same,TGI,ACHN renal,> 100 µM
same,TGI,SF-268 CNS,> 100 µM
same,TGI,M19-MEL melanoma,> 100 µM
same,TGI,M14 melanoma,> 100 µM
same,TGI,K-562 leukemia,> 100 µM
same,TGI,SK-OV-3 ovarian,> 100 µM
same,TGI,SN12C renal,> 100 µM
same,TGI,SW-620 colon,> 100 µM
same,TGI,A549 NSCLC,> 100 µM
same,TGI,OVCAR-3 ovarian,> 100 µM
same,TGI,HL-60(TB) leukemia,> 100 µM
same,TGI,RXF 393 renal,> 100 µM
same,TGI,LXFL 529 NSCLC,> 100 µM
same,TGI,TK-10 renal,> 100 µM
same,TGI,MOLT-4 leukemia,> 100 µM
same,TGI,XF 498 CNS,> 100 µM
